Literature values as cited in patent US8173626B2, “Methods, dosing regimens and medications using anti-progestational agents for the treatment of disorders” (Danco Laboratories LLC, priority 2006, dated 2012).
Read-outs that look alike come from different tables or passages of the source.

What was measured:
glucocorticoid receptors = target: T1, glucocorticoid receptors (Homo sapiens, UniProt P04150); conditions: cited from earlier work
T1 sequence (P04150 1-777): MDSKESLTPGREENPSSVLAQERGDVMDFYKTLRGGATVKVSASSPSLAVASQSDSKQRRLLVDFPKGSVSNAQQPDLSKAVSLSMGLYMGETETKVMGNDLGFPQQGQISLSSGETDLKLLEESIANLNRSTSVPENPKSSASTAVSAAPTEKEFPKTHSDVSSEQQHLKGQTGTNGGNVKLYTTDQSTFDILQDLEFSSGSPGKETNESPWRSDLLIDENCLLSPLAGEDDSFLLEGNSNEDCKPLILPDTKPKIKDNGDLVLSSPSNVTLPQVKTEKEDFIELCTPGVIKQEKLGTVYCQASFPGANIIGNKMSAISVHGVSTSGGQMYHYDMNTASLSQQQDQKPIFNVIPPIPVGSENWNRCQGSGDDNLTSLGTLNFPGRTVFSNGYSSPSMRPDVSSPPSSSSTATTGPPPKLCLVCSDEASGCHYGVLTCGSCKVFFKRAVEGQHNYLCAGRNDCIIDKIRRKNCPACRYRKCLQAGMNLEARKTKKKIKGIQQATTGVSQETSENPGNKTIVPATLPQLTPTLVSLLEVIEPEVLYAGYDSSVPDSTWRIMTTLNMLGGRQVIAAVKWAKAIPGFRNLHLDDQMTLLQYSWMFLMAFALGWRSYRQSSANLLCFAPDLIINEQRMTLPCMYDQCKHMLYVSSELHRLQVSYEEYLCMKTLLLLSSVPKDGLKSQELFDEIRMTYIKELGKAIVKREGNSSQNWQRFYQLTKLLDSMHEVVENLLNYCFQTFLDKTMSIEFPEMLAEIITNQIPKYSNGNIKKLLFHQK

breakthrough bleeding = conditions: cited from earlier work; for subjects with irregular or prolonged bleeding: Newton et al.; for days of vaginal bleeding: Tyler et al.

Compound: CC(=O)c1ccc([C@H]2C[C@@]3(C)[C@@H](CC[C@@]3(O)C(F)(F)C(F)(F)F)[C@@H]3CCC4=CC(=O)CCC4=C32)cc1 [ZK230211]
- activity against glucocorticoid receptors (glucocorticoid receptors): substantially inactive

Compound: C[C@@H]1C[C@@H]2C(=C3CCC(=O)C=C31)[C@@H](c1ccc(N(C)C)cc1)C[C@@]1(C)[C@H]2CC[C@@]12CCCO2 [Org 31710, (6α,11β,17β)-11-(4-NMe2-phenyl)-6-Me-4′,5′-dihydrospiro[oestra-4,9-diene-17,2(3′H)-furan]-3-one]
- activity against glucocorticoid receptors (glucocorticoid receptors): substantially inactive

Compound: CC(=O)O[C@]1(C(C)=O)CC[C@H]2[C@@H]3C[C@H](C)C4=CC(=O)CC[C@]4(C)[C@H]3CC[C@@]21C [DMPA, depo-medroxyprogesterone acetate]
- subjects with irregular or prolonged bleeding (breakthrough bleeding; 9-12th month of use): 34%
- days of vaginal bleeding (breakthrough bleeding; between the first and second injection): around 30 % of days
- days of vaginal bleeding (breakthrough bleeding; between the second and third injection): ~20 % of days
- subjects with irregular or prolonged bleeding (breakthrough bleeding; first 3 months of DMPA): 90%
- discontinuation rate due to breakthrough bleeding (breakthrough bleeding; first year of use, Toppozada et al.): ≤ 40%

Compound: C[C@H]1CC2=CC(=O)CCC2=C2[C@@H]1[C@@H]1CC[C@@]3(CCCO3)[C@@]1(C)C[C@@H]2c1ccc(N(C)C)cc1 [Org 31806, (7β,11β,17β)-11-(4-NMe2-phenyl)-7-Me-4′,5′-dihydrospiro(oestra-4,9-diene-17,2′(3′H)-furan)-3-one]
- activity against glucocorticoid receptors (glucocorticoid receptors): substantially inactive

Compound: (11β,17α)-(4-acetylphenyl)-17,23-epoxy-19,24-dinorchola-4,9,20-trien-3-one [Org 33628]
- activity against glucocorticoid receptors (glucocorticoid receptors): substantially inactive
